Test results as given in ChEMBL document CHEMBL4396870, “Pharmacological Chaperones for the Treatment of α-Mannosidosis” (J Med Chem, 2019).
Residue numbers refer to the chain shown, from its start.

What was measured:
[1] = test system: T1, Lysosomal alpha-mannosidase (Homo sapiens), O00754 [L565P]; test: Chaperone activity at human Lysosomal alpha-mannosidase L565P mutant transfected in human […] knockout HAP1 cells assessed as enzyme activity enhancement at 0.2 uM incubated for 96 hrs relative to control
T1 sequence (whole entry): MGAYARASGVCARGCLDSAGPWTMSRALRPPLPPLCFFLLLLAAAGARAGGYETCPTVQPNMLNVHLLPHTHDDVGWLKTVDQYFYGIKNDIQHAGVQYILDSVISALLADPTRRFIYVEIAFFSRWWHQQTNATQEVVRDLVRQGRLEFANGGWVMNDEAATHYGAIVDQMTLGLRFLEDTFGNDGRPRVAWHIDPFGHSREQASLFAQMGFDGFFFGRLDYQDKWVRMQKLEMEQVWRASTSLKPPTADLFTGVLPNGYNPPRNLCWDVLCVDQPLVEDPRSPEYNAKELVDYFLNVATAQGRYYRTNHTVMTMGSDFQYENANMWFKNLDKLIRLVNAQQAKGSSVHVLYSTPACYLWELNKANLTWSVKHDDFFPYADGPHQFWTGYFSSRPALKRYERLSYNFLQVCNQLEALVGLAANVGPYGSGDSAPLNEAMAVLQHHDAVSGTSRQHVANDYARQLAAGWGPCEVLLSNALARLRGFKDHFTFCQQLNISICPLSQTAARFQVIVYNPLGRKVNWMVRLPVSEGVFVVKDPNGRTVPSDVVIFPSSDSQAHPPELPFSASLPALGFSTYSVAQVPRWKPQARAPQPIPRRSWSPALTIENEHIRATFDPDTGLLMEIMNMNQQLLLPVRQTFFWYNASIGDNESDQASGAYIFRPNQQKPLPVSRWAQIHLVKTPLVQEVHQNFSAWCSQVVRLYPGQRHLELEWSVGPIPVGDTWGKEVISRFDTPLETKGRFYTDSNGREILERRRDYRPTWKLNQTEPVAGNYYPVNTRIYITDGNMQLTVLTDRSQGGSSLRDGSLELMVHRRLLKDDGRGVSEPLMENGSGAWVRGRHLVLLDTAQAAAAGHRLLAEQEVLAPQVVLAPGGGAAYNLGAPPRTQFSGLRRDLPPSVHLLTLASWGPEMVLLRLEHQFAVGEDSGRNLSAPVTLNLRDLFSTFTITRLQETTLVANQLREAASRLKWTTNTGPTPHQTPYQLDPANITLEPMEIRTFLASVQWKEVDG

[2] = test system: T2, Lysosomal alpha-mannosidase (Homo sapiens), O00754 [L352P]; test: Chaperone activity at human Lysosomal alpha-mannosidase L352P mutant transfected in human […] knockout HAP1 cells assessed as enzyme activity enhancement at 20 uM incubated for 96 hrs relative to control
T2 sequence (whole entry): T1 sequence (whole entry) with L352P, P565L

Activity [1] [%] | Activity [2] [%] | Structure (SMILES)
12 | 3 | CC(C)(C)OC(=O)NCCCCCCCCCN[C@@H]1[C@@H](O)[C@@H](O)[C@H](O)[C@H]2COC(=O)N21
0 | 4 | COC[C@H]1O[C@@H]2O[C@H]3[C@H](OC)[C@@H](OC)[C@@H](O[C@H]4[C@H](OC)[C@@H](OC)[C@@H](O[C@H]5[C@H](OC)[C@@H](OC)[C@@H](O[C@H]6[C@H](OC)[C@@H](OC)[C@@H](O[C@H]7[C@H](OC)[C@@H](OC)[C@@H](O[C@H]8[C@H](OC)[C@@H](OC)[C@@H](O[C@H]1[C@H](OC)[C@H]2OC)O[C@@H]8COC)O[C@@H]7COC)O[C@@H]6COC)O[C@@H]5COCc1cn(CCCCCCN[C@@H]2[C@@H](O)[C@@H](O)[C@H](O)[C@H]5COC(=O)N52)nn1)O[C@@H]4COC)O[C@@H]3COC
